Assay results: the NIST ThermoML archive (doi:10.1021/je900237e)
Numbers after ± are expanded uncertainties.

Conditions: 101.33 kPa, Liquid; for speed of sound: Pulse-echo method; for mass density: Pycnometric method

| Structure (SMILES) | speed of sound (298.15 K) [m/s] | mass density (298.15 K) [kg/m3] | speed of sound (308.15 K) [m/s] |
| --- | --- | --- | --- |
| Cc1ccccc1 [toluene] | 1305 ± 5 | 862.17 ± 5.4 |  |
| c1ccccc1 [benzene] | 1298 ± 5 | 873.64 ± 5.5 |  |
| Cc1ccccc1N [2-methylaniline] |  | 994.28 ± 0.57 | 1603 ± 2.3 |
| Cc1ccc(C)cc1 [1,4-dimethylbenzene] | 1310 ± 2 | 858.63 ± 0.45 |  |
| Cc1ccccc1C [1,2-dimethylbenzene] | 1344 ± 2 | 875.9 ± 0.46 |  |
